Laboratory results from ChEMBL document CHEMBL6092203, “Discovery of Novel PROTAC-Based HPK1 Degraders with High Potency and Selectivity for Cancer Immunotherapy” (J Med Chem, 2024).
Calls of active or inactive are those of the source. The rule behind the calls is not given here.

Assays:
[1] = Clearance in mouse at 2 mg/kg, iv measured upto 24 hrs by LC-MS analysis; assay type: ADME, organism-based; conditions: in vivo
[2] = target: T1, Protein cereblon/Mitogen-activated protein kinase kinase kinase kinase 1 (Homo sapiens, UniProt Q92918+Q96SW2); experiment: PROTAC activity at CRBN/HPK1 in human Jurkat cells assessed as HPK1 degradation measured after 24 hrs by Western blotting analysis; assay type: cell-based; conditions: dose 1-2000 nM
T1 sequence (Q92918 whole entry, looked up): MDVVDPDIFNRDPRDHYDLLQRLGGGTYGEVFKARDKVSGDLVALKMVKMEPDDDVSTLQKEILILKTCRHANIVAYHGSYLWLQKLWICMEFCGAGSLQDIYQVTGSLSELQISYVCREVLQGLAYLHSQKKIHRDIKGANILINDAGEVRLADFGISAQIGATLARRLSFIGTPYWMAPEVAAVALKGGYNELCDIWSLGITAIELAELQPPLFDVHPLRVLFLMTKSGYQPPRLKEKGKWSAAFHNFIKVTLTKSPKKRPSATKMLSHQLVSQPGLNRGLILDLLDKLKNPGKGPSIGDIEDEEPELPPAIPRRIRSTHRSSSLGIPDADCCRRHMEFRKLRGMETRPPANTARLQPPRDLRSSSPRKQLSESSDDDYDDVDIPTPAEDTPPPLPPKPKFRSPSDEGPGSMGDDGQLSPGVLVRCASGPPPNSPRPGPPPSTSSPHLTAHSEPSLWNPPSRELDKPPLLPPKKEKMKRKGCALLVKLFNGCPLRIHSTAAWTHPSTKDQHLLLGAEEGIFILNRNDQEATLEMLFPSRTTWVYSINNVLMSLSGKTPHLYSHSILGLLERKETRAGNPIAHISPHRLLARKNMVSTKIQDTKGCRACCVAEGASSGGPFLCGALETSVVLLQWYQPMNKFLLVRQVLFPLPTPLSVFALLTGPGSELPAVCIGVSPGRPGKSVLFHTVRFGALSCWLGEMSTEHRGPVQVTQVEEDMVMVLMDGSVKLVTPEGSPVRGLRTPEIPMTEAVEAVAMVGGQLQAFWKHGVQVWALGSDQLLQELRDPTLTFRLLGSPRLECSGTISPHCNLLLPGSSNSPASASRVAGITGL
T1 sequence (Q96SW2 whole entry, looked up): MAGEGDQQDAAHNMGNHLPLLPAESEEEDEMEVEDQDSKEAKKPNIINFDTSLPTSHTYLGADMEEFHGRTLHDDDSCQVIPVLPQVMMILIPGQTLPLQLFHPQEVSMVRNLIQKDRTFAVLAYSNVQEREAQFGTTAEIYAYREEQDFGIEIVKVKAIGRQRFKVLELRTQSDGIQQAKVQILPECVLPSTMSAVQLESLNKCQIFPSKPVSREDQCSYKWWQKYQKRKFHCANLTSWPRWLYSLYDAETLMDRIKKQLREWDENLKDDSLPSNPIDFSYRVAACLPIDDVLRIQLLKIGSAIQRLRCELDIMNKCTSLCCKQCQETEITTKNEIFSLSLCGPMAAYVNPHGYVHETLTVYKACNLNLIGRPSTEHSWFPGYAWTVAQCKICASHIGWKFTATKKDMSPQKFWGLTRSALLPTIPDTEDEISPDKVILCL

[3] = target: T1, Protein cereblon/Mitogen-activated protein kinase kinase kinase kinase 1; experiment: PROTAC activity at CRBN/HPK1 in human Jurkat cells assessed as HPK1 degradation at 1 uM pretreated with lenalidomide for 4 hrs followed by compound addition and measured after 24 hrs by Western blotting analysis; assay type: cell-based
[4] = Induction of IL-2 secretion in human PBMCs incubated for 24 hrs by ELISA; assay type: functional, cell-based, PBMC
Jurkat = experiment: Induction of GLK degradation in human Jurkat cells at 1 to 1000 nM incubated for 24 hrs by Western blotting analysis; assay type: cell-based; conditions: dose 1-1000 nM
[5] = Plasma protein binding in rat at 10 uM incubated for 6 hrs by equilibrium dialysis based LC-MS/MS method; assay type: ADME, cell-free; conditions: read-out: PPB (converted)
[6] = Plasma protein binding in dog at 10 uM incubated for 6 hrs by equilibrium dialysis based LC-MS/MS method; assay type: ADME, cell-free, Canis lupus familiaris; conditions: read-out: PPB (converted)
[7] = Plasma protein binding in human at 10 uM incubated for 6 hrs by equilibrium dialysis based LC-MS/MS method; assay type: ADME, cell-free; conditions: read-out: PPB
[8] = Half-life in C57BL/6J mouse at 2 mg/kg, iv measured upto 24 hrs by LC-MS analysis; conditions: in vivo
[9] = AUCinfinity in C57BL/6J mouse at 2 mg/kg, iv measured upto 24 hrs by LC-MS analysis; assay type: ADME, organism-based; conditions: in vivo
[10] = Tmax in C57BL/6J mouse at 10 mg/kg, po measured upto 24 hrs by LC-MS analysis; assay type: ADME, organism-based; conditions: in vivo
[11] = Initial plasma concentration in Sprague-Dawley rat at 2 mg/kg, iv measured upto 24 hrs by LC-MS analysis; assay type: ADME, organism-based
[12] = Half-life in Sprague-Dawley rat at 2 mg/kg, iv measured upto 24 hrs by LC-MS analysis; conditions: in vivo
[13] = AUCinfinity in Sprague-Dawley rat at 2 mg/kg, iv measured upto 24 hrs by LC-MS analysis; assay type: ADME, organism-based; conditions: in vivo
[14] = Half-life in Beagle dog at 5 mg/kg, po measured upto 24 hrs by LC-MS analysis; conditions: in vivo
[15] = AUCinfinity in Beagle dog at 5 mg/kg, po measured upto 24 hrs by LC-MS analysis; assay type: ADME, organism-based, Canis lupus familiaris; conditions: in vivo
Cytochrome P450 3A4 = Cytochrome P450 3A4 (Homo sapiens, UniProt P08684); experiment: Inhibition of CYP3A4 in human liver microsomes using testosterone as substrate in presence of NADPH; assay type: ADME, Microsome
Cytochrome P450 3A4, sequence (P08684 whole entry): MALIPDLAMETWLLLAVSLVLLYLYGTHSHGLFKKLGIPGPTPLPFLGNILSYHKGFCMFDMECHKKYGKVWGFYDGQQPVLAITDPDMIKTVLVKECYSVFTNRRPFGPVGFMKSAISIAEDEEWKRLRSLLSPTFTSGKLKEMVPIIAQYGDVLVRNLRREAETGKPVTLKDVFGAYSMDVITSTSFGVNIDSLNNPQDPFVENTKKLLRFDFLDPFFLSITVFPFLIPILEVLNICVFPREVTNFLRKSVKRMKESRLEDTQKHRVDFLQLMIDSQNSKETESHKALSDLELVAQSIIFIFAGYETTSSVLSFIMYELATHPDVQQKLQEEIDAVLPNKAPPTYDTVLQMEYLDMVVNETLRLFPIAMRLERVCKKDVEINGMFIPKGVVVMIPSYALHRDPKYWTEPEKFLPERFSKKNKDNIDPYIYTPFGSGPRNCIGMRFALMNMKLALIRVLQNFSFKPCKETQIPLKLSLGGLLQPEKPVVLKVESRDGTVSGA

[16] = Drug metabolism in human hepatocytes assessed as phase 2 metabolites formation at 10 uM incubated for 120 mins by UHPLC-UV/MS/MS method; assay type: ADME, cell-based, Hepatocyte; conditions: 2 h
[17] = Clearance in rat relative to hepatic blood flow; conditions: in vivo
[18] = Drug distribution in rat liver measured after 0.5 to 6 hrs; assay type: ADME, tissue-based; conditions: in vivo, time 0.5-6 hrs
[19] = Drug distribution in rat kidney measured after 0.5 to 6 hrs; assay type: ADME, tissue-based; conditions: in vivo, time 0.5-6 hrs
[20] = Toxicity in C57BL/6J mouse assessed as body weight loss at 0.02 to 0.5 mg/kg, po qd administered for 3 to 4 weeks; assay type: organism-based; conditions: in vivo, dose lower 0.02 mg/kg, time lower 3 weeks, dose upper 0.5 mg/kg, time upper 4 weeks
MC-38 [21] = experiment: Synergistic antitumor activity against mouse MC38 cells implanted in C57BL/6J mouse assessed as tumor growth inhibition at 0.5 mg/kg, po bid measured after 4 weeks in presence of 5 mg/kg anti-PD1 and measured twice a week; assay type: functional; conditions: MC-38, 672 h, read-out: TGI
MC-38 [22] = experiment: Antitumor activity against mouse MC38 cells implanted in C57BL/6J mouse assessed as reduction in tumor volume at 0.1 mg/kg, po BID administered for 3 to 4 weeks (reference value: 1549.22 +/- 217.92 mm3); assay type: functional; conditions: time 3-4 weeks
MC-38 [23] = experiment: Synergistic antitumor activity against mouse MC38 cells implanted in C57BL/6J mouse assessed as reduction in tumor volume at 0.1 mg/kg, po bid administered for 3 to 4 weeks in presence of 5 mg/kg anti-PD1 and measured twice a week (reference value: 1549.22 +/- 217.92 mm3); assay type: functional; conditions: time 3-4 weeks
MC-38 [24] = experiment: Synergistic antitumor activity against mouse MC38 cells implanted in C57BL/6J mouse assessed as reduction in tumor weight at 100 mg/kg, po QD administered for 3 to 4 weeks in presence of 5 mg/kg anti-PD1 and measured twice a week (reference value: 1.79 +/- 0.24 g); assay type: functional; conditions: time 3-4 weeks
MC-38 [25] = experiment: Synergistic antitumor activity against mouse MC38 cells implanted in C57BL/6J mouse assessed as reduction in tumor weight at 0.5 mg/kg, po bid administered for 3 to 4 weeks in presence of 5 mg/kg anti-PD1 and measured twice a week (reference value: 1.79 +/- 0.24 g); assay type: functional; conditions: time 3-4 weeks
MC-38 [26] = experiment: Antitumor activity against mouse MC38 cells implanted in C57BL/6J mouse assessed as tumor weight inhibition rate at 1 mg/kg, po BID measured after 4 weeks; assay type: functional; set-up: scale not given: the % may be the effect or the level left
MC-38 [27] = experiment: Synergistic antitumor activity against mouse MC38 cells implanted in C57BL/6J mouse assessed as tumor weight inhibition rate at 0.5 mg/kg, po bid measured after 4 weeks in presence of 5 mg/kg anti-PD1 and measured twice a week; assay type: functional; set-up: scale not given: the % may be the effect or the level left
[28] = Tmax in female Sprague-Dawley rat at 2 mg/kg/day, po measured at day 1; assay type: ADME, organism-based; conditions: in vivo, time 1 day
[29] = Tmax in male Sprague-Dawley rat at 2 mg/kg/day, po measured at day 14; assay type: ADME, organism-based; conditions: in vivo, time 14 day
[30] = AUC(0 to 24 hrs) in male Sprague-Dawley rat at 2 mg/kg/day, po measured at day 1; assay type: ADME, organism-based; conditions: in vivo, time 1 day
[31] = AUC(0 to 24 hrs) in male Sprague-Dawley rat at 30 mg/kg/day, po measured at day 1; assay type: ADME, organism-based; conditions: in vivo, time 1 day
[32] = Toxicity in C57BL/6J mouse assessed as change in body weight at 0.1 to 1 mg/kg, po bid measured after 28 days; assay type: organism-based; conditions: in vivo, 672 h, dose 0.1-1 mg/kg, time 28 day
in vivo [33] = conditions: male, Sprague-Dawley, rat, po, 30 mg/kg
in vivo [34] = conditions: female, Sprague-Dawley, rat, po, 100 mg/kg
in vitro = conditions: rat, hepatocytes

SMILES: O=C1CCN(c2cc(C(=O)N3CCC(CC4CCN(c5ccc(-c6cnc7[nH]cc(-c8cnn(CC(F)(F)F)c8)c7n6)cn5)CC4)CC3)ccc2Cl)C(=O)N1
- clearance [1]: 0.598 mL/min/kg
- Activity [2]: Dose-dependent-effect
- Activity [3]: inactive
- Emax [4]: 1151.57 pg/mL
- Activity (Jurkat): inactive
- fraction unbound at 6 h, 10 µM [5]: 0.0008
- fraction unbound at 6 h, 10 µM [6]: 0.0004
- fraction unbound at 6 h, 10 µM [7]: 0.001
- half-life at 24 h [8]: 1.17 h
- AUC(0-inf) [9]: 5560 ng·h/mL
- Tmax [10]: 1 h
- C0 at 24 h [11]: 3380 ng/mL
- half-life at 24 h [12]: 2.86 h
- AUC(0-inf) [13]: 8220 ng·h/mL
- half-life at 24 h [14]: 4.23 h
- AUC(0-inf) [15]: 796 ng·h/mL
- IC50 (Cytochrome P450 3A4): > 10 µM
- Drug metabolism [16]: metabolite_detected
- clearance [17]: 16.6 mL/min/kg
- Drug uptake [18]: Active
- Drug uptake [19]: Active
- Activity [20]: Non-toxic
- inhibition in vivo at 0.5 mg/kg (MC-38 [21]): 91%
- Activity (MC-38 [22]): 1107.91 mm3
- Activity (MC-38 [23]): 934.84 mm3
- Activity (MC-38 [24]): 0.3 g
- Activity (MC-38 [25]): 0.24 g
- Activity (MC-38 [26]): 12.77%
- Activity (MC-38 [27]): 86.54%
- Tmax [28]: 6 h
- Tmax [29]: 10 h
- AUC(0-t) at 24 h [30]: 1040 ng·h/mL
- AUC(0-t) at 24 h [31]: 38200 ng·h/mL
- Activity [32]: Non-toxic
- Cmax at 336 h (in vivo [33]): 3200 ng/mL
- Cmax at 336 h (in vivo [34]): 8590 ng/mL
- half-life at 1.5 h, 1 µM (in vitro): 3.9 h
